Experimental data as given in patent US11623925B2, “Processes for preparing a diaminopyrimidine derivative or acid addition salt thereof” (YUHAN CORPORATION, priority 2018, dated 2023).
Counter-ions that a name gives are not always drawn.

Columns and labels:
[1] = Storage of the amorphous hydrochloride at room temperature; assay type: physicochemical; details: stored at room temperature; in words
Description: In addition, WO 2012/115480 has disclosed the step for converting the compound of Formula 1 to a hydrochloride thereof. The converting step comprises reacting the compound of Formula 1 with hydrochloric acid in ethyl acetate, stirring at room temperature for 1 hour, and then filtering the product. It has been found by the present inventors that the hydrochloride of the compound of Formula 1 obtained by said method is in the amorphous form and brings about the problem producing deacetylated impurities in high level when stored at room temperature.

[2] = Stability tests: storage at 60° C. and 75% RH for 2 weeks, HPLC analysis; assay type: physicochemical; details: for change in the HPLC purity / change in the amount of deacetylated impurities: 2 weeks, in words
Description: (S)-N-(1-(2-((4-amino-3-nitrophenyl)amino)-6-propylpyrimidin-4-yl)pyrrolidin-3-yl) acetamide hydrochloride prepared according to WO 2012/115480 (Amorphous form, Test compound 1) and the crystalline form A of (S)-N-(1-(2-((4-amino-3-nitrophenyl)amino)-6-propylpyrimidin-4-yl)pyrrolidin-3-yl)acetamide hydrochloride prepared in Example 7 (Test compound 2) were stored under the conditions of 60° C. and 75% RH for 2 weeks. The amounts of each test compound and the deacetylated impurities were analyzed with HPLC so as to measure the respective HPLC purities.

| Compound | deacetylated impurities produced on storage [1] | change in the HPLC purity [2] | change in the amount of deacetylated impurities [2] | HPLC purities, Compound ([2]; Storage time: 1 week) [%] | HPLC purities, Deacetylated impurities ([2]; Storage time: 1 week) [%] | HPLC purities, Compound ([2]; Storage time: 2 weeks) [%] | HPLC purities, Deacetylated impurities ([2]; Storage time: 2 weeks) [%] | HPLC purities, Compound ([2]; Storage time: Initial) [%] | HPLC purities, Deacetylated impurities ([2]; Storage time: Initial) [%] |
| --- | --- | --- | --- | --- | --- | --- | --- | --- | --- |
| CCCc1cc(N2CC[C@H](NC(C)=O)C2)nc(Nc2ccc(N)c([N+](=O)[O-])c2)n1.Cl [Test compound 1, (S)-N-(1-(2-((4-amino-3-nitrophenyl)amino)-6-propylpyrimidin-4-yl)pyrrolidin-3-yl) acetamide hydrochloride] | high level | marked decrease | marked increase | 95.5 | 3.78 | 86.6 | 12.7 | 98.7 | 0.58 |
| CCCc1cc(N2CC[C@H](NC(C)=O)C2)nc(Nc2ccc(N)c([N+](=O)[O-])c2)n1 [Test compound 2, (S)-N-(1-(2-((4-amino-3-nitrophenyl)amino)-6-propylpyrimidin-4-yl)pyrrolidin-3-yl)acetamide hydrochloride] | – | no significant change | no significant change | 99.6 | 0.07 | 99.6 | 0.07 | 99.6 | 0.08 |
